# Data from patent publication US7884117B2, “Carbonylamino pyrrolopyrazoles, potent kinase inhibitors” (Pfizer Inc., priority 2005, dated 2011).
# Columns and labels:
# [1] = molecular target: T1, PAK4 kinase activity in whole cells (TR-293-KDG, modified HEK 293) (Homo sapiens, UniProt O96013); assay: PAK4 cellular assay: sandwich ELISA of PAK4-dependent phosphorylation of GEF-H1b in TR-293-KDG cells; type: cell-based; details: 3-hour exposure
# T1 construct: engineered to overexpress both GEF-H1b and the kinase domain (KD) of PAK4; expressed in transfected cells; host or cells: TR-293-KDG (modified HEK 293, Trex system, Invitrogen)
# T1 sequence (O96013 321-572 limits assumed): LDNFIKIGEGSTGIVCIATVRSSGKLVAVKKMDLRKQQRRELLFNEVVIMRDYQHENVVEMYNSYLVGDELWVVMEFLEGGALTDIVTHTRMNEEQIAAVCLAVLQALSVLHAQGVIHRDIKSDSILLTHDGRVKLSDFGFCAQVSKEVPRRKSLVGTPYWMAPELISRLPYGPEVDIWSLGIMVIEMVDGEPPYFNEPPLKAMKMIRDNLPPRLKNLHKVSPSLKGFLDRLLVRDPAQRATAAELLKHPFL
# Method: A sandwich ELISA method was used to measure the PAK4 kinase activity in whole cells. The level of PAK4-dependent phosphorylation of GEF-H1b can be determined by monitoring the binding of a phosphospecific antibody to GEF-H1b. […] The KD of PAK4 is inducible in this cell line by tetracycline (Trex system, Invitrogen). […] To establish a phosphorylation event on GEF-HL, cells are induced with doxycycline to express the PAK4 KD. […] Candidate substance effect is measured as the ability to block this phosphorylation event.
# ELISA plate was prepared by pre-coating the plates with a capture antibody (α-HA-tag mouse monoclonal antibody), blocked with BSA, and washed in 0.1% tween 20 in tris-buffered saline (TBST). […] Cells were then lysed with a modified RIPA buffer supplemented with protease inhibitors. […] Between all subsequent steps plates were washed 4 times with TBST. Detection antibody (recognizing the phospho-specific eptitope on GEF-H1b) was added for 1 hour, followed by addition of an enzyme linked goat α-rabbit secondary antibody for 45 minutes. […] EC50 values were calculated by sigmoid curve fitting using a four-parameter analysis.
# [2] = molecular target: T2, PAK4 Kinase domain (PAK4 KD) (Homo sapiens, UniProt O96013); assay: PAK4 kinase domain enzymatic assay (PK/LDH-coupled, Ki); type: biochemical; details: for Ki: PAK4 Kinase Domain
# T2 construct: Cloning, expression, and purification of recombinant PAK4 Kinase domain (PAK4 KD); His tag (pET28a(+)/pET24a(+), Ni-NTA purification) (N, cleaved yes); GST (pGST4.5, glutathione column) (N, cleaved yes); made in house; host or cells: E. coli BL21(DE3)
# T2 sequence (O96013 321-572 limits assumed): as above
EC50 [1] [nM],Ki [2] [nM],inhibition at 1 µM [2] [%],Compound
50,42.1,,"CN(C)C[C@@H](OC(=O)N1Cc2c(NC(=O)c3ccccc3F)n[nH]c2C1(C)C)c1ccccc1 [Example 3, (1S)-2-(dimethylamino)-1-phenylethyl 3-[(2-fluorobenzoyl)amino]-6,6-dimethyl-4,6-dihydropyrrolo[3,4-c]pyrazole-5(1H)-carboxylate]"
14.6,68,,"CN(C)C[C@@H](OC(=O)N1Cc2c(NC(=O)c3ccc(F)cc3F)n[nH]c2C1(C)C)c1ccccc1 [Example 4, (1S)-2-(dimethylamino)-1-phenylethyl 3-[(2,4-difluorobenzoyl)amino]-6,6-dimethyl-4,6-dihydropyrrolo[3,4-c]pyrazole-5(1H)-carboxylate]"
271,14.4,,CN(C)C[C@@H](OC(=O)N1Cc2c(NC(=O)c3ccc(C(F)(F)F)cc3)n[nH]c2C1(C)C)c1ccccc1 [Example 5]
27.9,30.9,,"CN(C)C[C@@H](OC(=O)N1Cc2c(NC(=O)c3ccccn3)n[nH]c2C1(C)C)c1ccccc1 [Example 6, (1S)-2-(dimethylamino)-1-phenylethyl 6,6-dimethyl-3-[(pyridin-2-ylcarbonyl)amino]-4,6-dihydropyrrolo[3,4-c]pyrazole-5(1H)-carboxylate]"
230,314,,"CC(=O)Nc1n[nH]c2c1CN(C(=O)O[C@H](CN(C)C)c1ccccc1)C2(C)C [Example 7, (1S)-2-(dimethylamino)-1-phenylethyl 3-(acetylamino)-6,6-dimethyl-4,6-dihydropyrrolo[3,4-c]pyrazole-5(1H)-carboxylate]"
7.4,124,,"CC(C)C(=O)Nc1n[nH]c2c1CN(C(=O)O[C@H](CN(C)C)c1ccccc1)C2(C)C [Example 8, (1S)-2-(dimethylamino)-1-phenylethyl 3-(isobutyrylamino)-6,6-dimethyl-4,6-dihydropyrrolo[3,4-c]pyrazole-5(1H)-carboxylate]"
13.3,96.4,,"CN(C)C[C@@H](OC(=O)N1Cc2c(NC(=O)C3CC3)n[nH]c2C1(C)C)c1ccccc1 [Example 9, (1S)-2-(dimethylamino)-1-phenylethyl 3-[(cyclopropylcarbonyl)amino]-6,6-dimethyl-4,6-dihydropyrrolo[3,4-c]pyrazole-5(1H)-carboxylate]"
28.3,23.3,,"CN(C)C[C@@H](OC(=O)N1Cc2c(NC(=O)Cc3ccc(F)cc3)n[nH]c2C1(C)C)c1ccccc1 [Example 18, (1S)-2-(dimethylamino)-1-phenylethyl 3-{[(4-fluorophenyl)acetyl]amino}-6,6-dimethyl-4,6-dihydropyrrolo[3,4-c]pyrazole-5(1H)-carboxylate]"
67.8,7.87,,"COc1ccc(CC(=O)Nc2n[nH]c3c2CN(C(=O)O[C@H](CN(C)C)c2ccccc2)C3(C)C)cc1 [Example 19, (1S)-2-(dimethylamino)-1-phenylethyl 3-{[(4-methoxyphenyl)acetyl]amino}-6,6-dimethyl-4,6-dihydropyrrolo [3,4-c]pyrazole-5(1H)-carboxylate]"
14.8,17.4,,CN(C)CC(OC(=O)N1Cc2c(NC(=O)c3ccc(F)cc3)n[nH]c2C1(C)C)c1ccccc1 (centres unmarked) [Example 22]
,226,,"CCC(=O)Nc1n[nH]c2c1CN(C(=O)O[C@H](CN(C)C)c1ccccc1)C2(C)C [Example 118, (S)-2-(dimethylamino)-1-phenylethyl 6,6-dimethyl-3-propionamidopyrrolo[3,4-c]pyrazole-5(1H,4H,6H)-carboxylate]"

# Continued, compound first:
Compound,EC50 [1] [nM],Ki [2] [nM],inhibition at 1 µM [2] [%]
"3-[(2,4-difluorobenzoyl)amino]-N-[(1S)-2-(dimethylamino)-1-phenylethyl]-6,6-dimethyl-4,6-dihydropyrrolo[3,4-c]pyrazole-5(1H)-carbox- amide [Example 49]",90.8,193,
"CC1(C)c2[nH]nc(NC(=O)c3cccs3)c2CN1C(=O)N[C@H]1C[C@@H]1c1ccccc1 (relative stereo) [Example 98, 6,6-dimethyl-N-[trans-2-phenylcyclopropyl]-3-[(2-thienylcarbonyl)amino]-4,6-dihydropyrrolo[3,4-c]pyrazole-5(1H)-carboxamide]",1080,19.5,
"CC1(C)c2[nH]nc(NC(=O)[C@@H]3C[C@H]3c3ccccc3)c2CN1C(=O)N[C@@H]1C[C@H]1c1ccccc1 (relative stereo) [Example 108, 6,6-dimethyl-N-[trans-2-phenylcyclopropyl]-3-({[trans-2-phenylcyclopropyl]-carbonyl}amino)-4,6-dihydropyrrolo[3,4-c]pyrazole-5(1H)-carboxamide]",1150,70,
"CN(C)CC(OC(=O)N1Cc2c(n[nH]c2NC(=O)C2CCCO2)C1(C)C)c1cccc(F)c1 (single isomer, unassigned) [Example 83A]",560,,
"CN(C)CC(OC(=O)N1Cc2c(n[nH]c2NC(=O)C2CCCO2)C1(C)C)c1cccc(F)c1 (single isomer, unassigned) [Example 83B]",5,36.2,
"CN(C)CC(OC(=O)N1Cc2c(n[nH]c2NC(=O)C2CCCO2)C1(C)C)c1cccc(F)c1 (single isomer, unassigned) [Example 84A]",16,70,
"CN(C)CC(OC(=O)N1Cc2c(n[nH]c2NC(=O)C2CCCO2)C1(C)C)c1cccc(F)c1 (single isomer, unassigned) [Example 84B]",396,,
"CN(C)C[C@@H](OC(=O)N1Cc2c(NC(=O)C(C)(C)C)n[nH]c2C1(C)C)c1ccccc1 [Example 10, (1S)-2-(dimethylamino)-1-phenylethyl 3-[(2,2-dimethylpropanoyl)amino]-6,6-dimethyl-4,6-dihydropyrrolo[3,4-c]pyrazole-5(1H)-carboxylate]",7.2,75,
"CN(C)C[C@@H](OC(=O)N1Cc2c(NC(=O)C3CCC3)n[nH]c2C1(C)C)c1ccccc1 [Example 11, (1S)-2-(dimethylamino)-1-phenylethyl 3-[(cyclobutylcarbonyl)amino]-6,6-dimethyl-4,6-dihydropyrrolo[3,4-c]pyrazole-5(1H)-carboxylate]",15.7,101,
"CN(C)C[C@@H](OC(=O)N1Cc2c(NC(=O)C3CCCC3)n[nH]c2C1(C)C)c1ccccc1 [Example 12, (1S)-2-(dimethylamino)-1-phenylethyl 3-[(cyclopentylcarbonyl)amino]-6,6-dimethyl-4,6-dihydropyrrolo[3,4-c]pyrazole-5(1H)-carboxylate]",3.27,95.5,
"CN(C)C[C@@H](OC(=O)N1Cc2c(NC(=O)C3CCCCC3)n[nH]c2C1(C)C)c1ccccc1 [Example 13, (1S)-2-(dimethylamino)-1-phenylethyl 3-[(cyclohexylcarbonyl)amino]-6,6-dimethyl-4,6-dihydropyrrolo[3,4-c]pyrazole-5(1H)-carboxylate]",3.9,109,
"CN(C)C[C@@H](OC(=O)N1Cc2c(NC(=O)C3CCCO3)n[nH]c2C1(C)C)c1ccccc1 (stereo partly drawn) [Example 15, (1S)-2-(dimethylamino)-1-phenylethyl 6,6-dimethyl-3-[(tetrahydrofuran-2-ylcarbonyl)amino]-4,6-dihydropyrrolo[3,4-c]pyrazole-5(1H)-carboxylate]",16.1,145,
"CN(C)C[C@@H](OC(=O)N1Cc2c(NC(=O)C3CCCCO3)n[nH]c2C1(C)C)c1ccccc1 (stereo partly drawn) [Example 16, (1S)-2-(dimethylamino)-1-phenylethyl 6,6-dimethyl-3-[(tetrahydro-2H-pyran-2-ylcarbonyl)amino]-4,6-dihydropyrrolo[3,4-c]pyrazole-5(1H)-carboxylate]",17.9,118,
"CN(C)C[C@@H](OC(=O)N1Cc2c(NC(=O)C3CN(C)CCO3)n[nH]c2C1(C)C)c1ccccc1 (stereo partly drawn) [Example 17, (1S)-2-(dimethylamino)-1-phenylethyl 6,6-dimethyl-3-{[(4-methylmorpholin-2-yl)carbonyl]amino}-4,6-dihydropyrrolo[3,4-c]pyrazole-5(1H)-carboxylate]",110,259,
"CN(C)C[C@@H](OC(=O)N1Cc2c(NC(=O)[C@@H]3C[C@H]3c3ccccc3)n[nH]c2C1(C)C)c1ccccc1 [Example 20, (1S)-2-(dimethylamino)-1-phenylethyl 6,6-dimethyl-3-({[trans-2-phenylcyclopropyl]carbonyl}amino)-4,6-dihydropyrrolo[3,4-c]pyrazole-5(1H)-carboxylate]",80.2,8.13,
"Cc1cc(C(=O)Nc2n[nH]c3c2CN(C(=O)NC2CC2c2ccccc2)C3(C)C)n(C)n1 (stereo not drawn) [Example 113, 3-(1,3-dimethyl-1H-pyrazole-5-carboxamido)-6,6-dimethyl-N-[trans-(2-phenylcyclopropyl)]pyrrolo[3,4-c]pyrazole-5(1H,4H,6H)-carboxamide]",,,65
"CCc1ccc(C(=O)Nc2n[nH]c3c2CN(C(=O)NC2CC2c2ccccc2)C3(C)C)cc1 (stereo not drawn) [Example 114, 3-(4-ethylbenzamido)-6,6-dimethyl-N-[trans-(2-phenylcyclopropyl)]pyrrolo[3,4-c]pyrazole-5(1H,4H,6H)-carboxamide]",,,70
"CC1(C)c2[nH]nc(NC(=O)c3ccc(F)cc3)c2CN1C(=O)N[C@H](CN)c1ccccc1 [Example 115, N-[(1S)-2-amino-1-phenylethyl]-3-[(4-fluorobenzoyl)amino]-6,6-dimethyl-4,6-dihydropyrrolo[3,4-c]pyrazole-5(1H)-carboxamide]",,20.8,
"COC[C@@H](NC(=O)N1Cc2c(NC(=O)c3ccccc3)n[nH]c2C1(C)C)c1ccccc1 [Example 120, (S)-3-benzamido-N-(2-methoxy-1-phenylethyl)-6,6-dimethylpyrrolo[3,4-c]pyrazole-5(1H,4H,6H)-carboxamide]",,463,
